The results in this text go back to patent US10647725B2, “Anti-infective 2-aminothiophenes” (priority 2016, dated 2020).

The test system of test [1] is Mtb H37Rv. The test is described as follows: modified 96-well microplate Alamar blue assay (MABA), growth inhibition. The class given is cell-based, Mycobacterium tuberculosis. To be noted: for growth inhibition activity in words: SAR discussion; for MIC: Mycobacterium tuberculosis, H37RV, Mtb H37Rv. A general note: Resazurin is reduced to fluorescent resorufin, in cell work by metabolically active cells.

Test [2] concerns THP-1 human monoocytic cell line. The test is described as follows: cytotoxicity towards PMA-differentiated THP-1 cells (CellTiter-Glo). It is filed as cell-based. (Cellular ATP, detected with luciferase, serves as a proxy for viable cell number.)
In test [3] the test system is Mtb H37Rv. The test is described as follows: minimum bactericidal concentration (MBC), kill kinetics over 21 days. It is filed as cell-based. The conditions noted are these: Mycobacterium tuberculosis, 504 h, aerobic, 7H9-Tw-OADC medium, 2-log kill in 21 days.
For another test, the system named is Mycobacterium abscessus. The test is described as follows: MIC against Mycobacterium abscessus, OD590. The conditions noted are these: Mycobacteroides abscessus.
Test [4] concerns Mtb H37Rv. The test is described as follows: microbe, parasite or virus in culture. It is filed as cell-based. The conditions noted are these: Mycobacterium tuberculosis.
Test [5] concerns mycolic acid biosynthesis in Mtb. The test is described as follows: mycolic acid biosynthesis, [1,2-14C]acetate labeling, TLC and autoradiography. The class given is cell-based, Mycobacterium tuberculosis. The conditions noted are these: 0.4-4 μg/ml, 16 h.
The test system of the next test is Mtb H37Rv mc26206. The test is described as follows: microbe, parasite or virus in culture. It is filed as cell-based. The conditions noted are these: Mycobacterium tuberculosis.
The test system of test [6] is autoluminescent Mtb strain derived from Mtb H37Rv in THP-1 cells. The test is described as follows: microbe, parasite or virus in culture. It is filed as cell-based. The conditions noted are these: Mycobacterium tuberculosis; for pIC50: THP-1, 72 h, read-out: IC50 intracellular activity.

pIC50: −log10 of the molar value. ≈ marks a conversion by molar mass, not a printed value. Entries after “also recorded” stand apart in the source; their conditions may differ.

Description for Mycobacterium abscessus: The activity of compounds against Mycobacterium abscessus and Mycobacterium avium was assessed under aerobic conditions by determining the minimum inhibitory concentration of compound (MIC). The strains were M. abscessus subsp. bollettii 103 and M. avium subsp. avium 2285 (S). The assay was based on measurement of growth in liquid medium of each strain where the readout is optical density (OD) or metabolic activity (using Alamar blue).
The MIC of compound against Mycobacterium abscessus and Mycobacterium avium was determined by measuring bacterial growth in the presence of test compounds. Compounds were prepared as 20-point two-fold serial dilutions in DMSO and diluted into 7H9-Tw-OADC medium in 96-well plates with a final DMSO concentration of 2%. The highest concentration of compound was 200 μM where compounds were soluble in DMSO at 10 mM. Each plate included assay controls for background (medium/DMSO only, no bacterial cells), zero growth (100 μM rifampicin) and maximum growth (DMSO only), as well as a rifampicin dose response curve.
For Mycobacterium abscessus, plates were inoculated with M. abscessus and incubated for 3 days at 37° C.; growth was measured by OD590. […] Rifampicin was included once in each run. […] If no point reached 75% inhibition, the MIC was reported as >maximum concentration tested.

On to `CCOC(=O)c1c(NC(=O)c2c(F)c(F)c(F)c(F)c2F)sc2c1CCN(C(=O)OC(C)(C)C)C2` [4{2,3,0}, 6-(Tert-butyl) 3-ethyl 2-(perfluorobenzamido)-4,7-dihydrothieno[2,3-c]pyridine-3,6(5H)-dicarboxylate], for which the “growth inhibition activity in words” value in the test on Mtb H37Rv [1] is “inactive”.
For the compound `CCOC(=O)c1c(NC(=O)c2c(F)c(F)c(F)c(F)c2F)sc2c1CCN(CC)C2` [4{3,3,0}, ethyl 6-ethyl-2-(perfluorobenzamido)-4,5,6,7-tetrahydrothieno[2,3-c]pyridine-3-carboxylate], the pIC50 is 5.21 in test [2] (Homo sapiens, 72 h, THP-1 macrophage-like cells, 3 days, read-out: IC50 (concentration causing a 50% loss in viability)) and 5.25 in test [6]. In addition, the “macrophage viability IC50 relative to the MIC” value in test [2] (times higher than the MIC) was 27 times. Besides, in the test on Mtb H37Rv [3], the minimal bactericidal concentration (MBC) is less than 5 µM. Further, the MIC amounted to 1.11 µg/mL (≈ 2.48 µM) with Mycobacterium abscessus, 0.23 µM (≈ 0.103 µg/mL) with Mtb H37Rv [4] and 0.4 µg/mL (≈ 0.892 µM) in the test with Mtb H37Rv mc26206. In test [5], the “effect on synthesis of mycolic acids (TMM, TDM, mAG-attached mycolates)” value is “strongly inhibits the biosynthesis of all forms of mycolic acid; also recorded: strongly inhibits the synthesis of all forms of mycolic acids”. In the test with Mtb H37Rv [1], the “increase in potency compared to compound 4{4,3,0}” value is 40 fold. Moreover, the IC90 in test [6] (THP-1, read-out: IC90 intracellular activity) is 9.75 µM.
In the case of `CCOC(=O)c1c(NC(=O)c2cc(C(F)(F)F)cc(C(F)(F)F)c2)sc2c1CCN(CC)C2` [4{3,4,0}, Ethyl 2-(3,5-bis(trifluoromethyl)benzamido)-6-ethyl-4,5,6,7-tetrahydrothieno[2,3-c]pyridine-3-carboxylate], the MIC with Mtb H37Rv [1] (read-out: MIC) was more than 100 µg/mL.
As to `CCN1CCc2c(sc(NC(=O)c3cc(C(F)(F)F)cc(C(F)(F)F)c3)c2C(=O)NCc2ccc(C)cc2)C1` [4{3,4,3}, 2-(3,5-Bis(trifluoromethyl)benzamido)-6-ethyl-N-(4-methylbenzyl)-4,5,6,7-tetrahydrothieno[2,3-c]pyridine-3-carboxamide], the MIC with Mtb H37Rv [1] was not below 200 µg/mL.
As for `CCOC(=O)c1c(NC(=O)c2ccccc2)sc2c1CCCC2` [4{4,2,0}], the “growth inhibition activity in words” value in the test on Mtb H37Rv [1] was “no activity”.
Take `CCOC(=O)c1cc(-c2ccccc2)sc1NC(=O)c1c(F)c(F)c(F)c(F)c1F` [4{5,3,0}, Ethyl 2-(perfluorobenzamido)-5-phenylthiophene-3-carboxylate]: the MIC in the test on Mtb H37Rv [1] (read-out: MIC) was more than 100 µg/mL.
As to `NNC(=O)c1ccncc1` [INH, Isoniazid, reference compound], in test [6], the pIC50 was 6.62.

The term MBC denotes the smallest concentration meeting the test's criterion for killing. The IC90 is the point of the concentration-response curve where the effect stands at 90%.
